What was measured:
[1] = system: Nucleic Acid; settings: at 1 µM
Description: Inhibition of N-acetylphenylalanine-tRNA peptide bond formation by puromycin reaction at 10E-6 M

[2] = system: Nucleic Acid; settings: at 10 µM
Description: Inhibition of N-acetylphenylalanine-tRNA peptide bond formation by puromycin reaction at 10E-5 M

[3] = system: Nucleic Acid; settings: at 10 µM; remark: listed apart in the source
Description: Inhibition of N-acetylphenylalanine-tRNA peptide bond formation by fragment reaction at 10e-5 M

Molecule | inhibition [1] | inhibition [2] | inhibition [3]
CC[C@H]1OC(=O)[C@H](C)[C@@H](O[C@H]2C[C@@](C)(OC)[C@@H](O)[C@H](C)O2)[C@H](C)[C@@H](O[C@@H]2O[C@H](C)C[C@H](N(C)C)[C@H]2O)[C@@](C)(O)C[C@@H](C)[C@H](NC(=O)COc2cc(N=[N+]=[N-])ccc2CO)[C@H](C)[C@@H](O)[C@]1(C)O | 15% | 23% | 0%
CC[C@H]1OC(=O)[C@H](C)[C@@H](O[C@H]2C[C@@](C)(OC)[C@@H](O)[C@H](C)O2)[C@H](C)[C@@H](O[C@@H]2O[C@H](C)C[C@H](N(C)C)[C@H]2O)[C@@](C)(O)C[C@@H](C)[C@H](NC(=O)CNC(=O)CCCOc2ccc([N+](=O)[O-])cc2OC)[C@H](C)[C@@H](O)[C@]1(C)O | 18% | 30% | 24%
SPIRAMYCIN | 53% | 85% | 48%
CC[C@H]1OC(=O)[C@H](C)[C@@H](O[C@H]2C[C@@](C)(OC)[C@@H](O)[C@H](C)O2)[C@H](C)[C@@H](O[C@@H]2O[C@H](C)C[C@H](N(C)C)[C@H]2O)[C@@](C)(O)C[C@@H](C)[C@H](NC(=O)CCCOc2ccc([N+](=O)[O-])cc2OC)[C@H](C)[C@@H](O)[C@]1(C)O | 13% | 25% | 11%

— ChEMBL document CHEMBL1124648, “Synthesis and biological activity of photoactive derivatives of erythromycin” (J Med Chem, 1989)
